The source of these data is paper PMC8193794 (Biochemistry, 2020).

Read-outs that look alike come from different tables or passages of the source.

For one data set, the system named is Aβ40-HN interactions. To be noted: cited from earlier work.
Data set [1] concerns the target biotin-humanin. Nature of the data set: ELISA.
Data set [2] addresses biotin-humanin. Nature of the data set: ELISA. The source holds these as a separate data set. (In general: ELISA stands for enzyme-linked immunosorbent assay.)
Data set [3] has as its target biotin-humanin. Description: ELISA. The source holds these as a separate data set.
Another data set concerns the target Humanin (HN) peptide. Nature of the data set: ELISA.
In data set [4] the target is biotin-humanin. Nature of the data set: ELISA. This is another data set of the same source.
Data set [5] addresses Amyloid-β (Aβ) of the conditioned media of A549 and H1299 cells (human (endogenous in A549 and H1299)). Description: ELISA.
Data set [6] has the same target. Nature of the data set: ELISA. This is another data set of the same source.
Data set [7] relates to amyloid oligomers and fibrils in A549 medium. Nature of the data set: Dot blot of A549 medium with exogenous IGFBP-3. The class given is cell-based, human. To be noted: 400 nM vs 100 nM IGFBP-3, A549 medium.
Data set [8] has as its system amyloid complexes in A549 conditioned medium. It is filed as binding, human.
The test system of data set [9] is H1299 cells. Description: MTT assay, H1299 cells. The class given is cell-based, human. The settings on record: medium immunodepleted of the named component, 48 h. Background: Formazan colour is commonly taken as a measure of viable cells.
The subject of a further data set is Aβ42. Nature of the data set: Thioflavin T. The class given is biochemical. To be noted: 37 °C.
The test system of another data set is Aβ40. Description: Thioflavin T. It is filed as biochemical. To be noted: 37 °C.
The test system of data set [10] is HN-Aβ (Aβ40 or Aβ42) complex. Nature of the data set: ELISA, HN-Aβ binding with increasing AChE, without or with IGFBP-3.
The subject of data set [11] is A549 human lung cancer cell. To be noted: residues 215–232 of IGFBP-3 bind hyaluronan, blocking CD44; cited from earlier work.
For a further data set, the system named is Aβ in H1299 medium. Nature of the data set: Aβ ELISA. The class given is cell-based, human. To be noted: Figure 11B; H1299 medium immunodepleted of the named component.
Data set [12] has as its system 6E10-bound Aβ complex from H1299 conditioned medium. Description: 6E10 capture ELISA of H1299 conditioned medium with exogenous IGFBP-3. It is filed as binding, human.
In data set [13] the test system is A549 cells. Nature of the data set: MTT assay, A549 cells. The class given is cell-based, human. The settings on record: medium immunodepleted of the named component, 48 h.
For another data set, the system named is Aβ in A549 medium. Description: Aβ ELISA. The class given is cell-based, human. To be noted: Figure 11A; A549 medium immunodepleted of the named component.
Data set [14] concerns H1299 cells. Nature of the data set: Apoptosis, annexin V ELISA, H1299 cells. It is filed as cell-based, human. The settings on record: medium immunodepleted of the named component, 48 h.
Data set [15] deals with A549 cells. Nature of the data set: Apoptosis, annexin V ELISA, A549 cells. It is filed as cell-based, human. To be noted: medium immunodepleted of the named component, 48 h.
Data set [16] has as its system Aβ / amyloid oligomers and fibrils in A549 medium. Description: Dot blot of immunodepleted A549 medium. It is filed as cell-based, human. To be noted: A549 medium immunodepleted of the named component; for anti-A11 oligomer signal after immunodepletion: Figure 9C,F.
Data set [17] has as its system 6E10-bound Aβ complex from A549 conditioned medium. Nature of the data set: 6E10 capture ELISA of A549 conditioned medium with exogenous IGFBP-3. The class given is binding, human.
The test system of data set [18] is amyloid oligomers and fibrils in H1299 medium. Nature of the data set: Dot blot of H1299 medium with exogenous IGFBP-3. It is filed as cell-based, human.
A further data set relates to Aβ (12–28) and Aβ (1–16). To be noted: cited from earlier work.
In data set [19] the test system is Aβ from A549 conditioned medium bound to 6E10. Description: 6E10 capture ELISA of A549 conditioned medium with exogenous HN. The class given is binding, human.
The test system of data set [20] is complex between HN and Aβ40. Description: ELISA, IGFBP-3 competition for the HN-Aβ40 complex. The class given is binding. The settings on record: AChE (100 nM), HN (100 nM).
Data set [21] deals with Aβ from H1299 conditioned medium bound to 6E10. Description: 6E10 capture ELISA of H1299 conditioned medium with exogenous HN. It is filed as binding, human.
In data set [22] the test system is complex between HN and Aβ42. Nature of the data set: ELISA, IGFBP-3 competition for the HN-Aβ42 complex. The class given is binding. To be noted: AChE (100 nM), HN (100 nM).
Data set [23] deals with Aβ / amyloid oligomers and fibrils in H1299 medium. Description: Dot blot of immunodepleted H1299 medium. The class given is cell-based, human. The settings on record: Figure 9B,E; H1299 medium immunodepleted of the named component.
Setting [24] is: Figure 8A, added IGFBP-3, cell line not stated.
The mark [25] stands for this setting: Figure 8A, cell line not stated.
Setting [26] is: Figure 8B, A549 medium, added IGFBP-3.

As for “HN (5–15, L11S) (GFSCLLSLTSE; Humanin; UniProt Q8IVG9 5-15, looked up, variant L11S)”, the “inhibition of Aβ40-HN interactions” value in the data set with Aβ40-HN interactions was “reduced the ability of HN (5–15) to compete with the Aβ40-HN interactions”.
By IC50 is commonly meant the concentration needed to halve the response being measured. Low readings indicate higher potency, high ones lower potency. As to “Recombinant human insulin-like growth factor binding protein-3 (IGFBP-3) (from UniProt P17936 28-291) (natural protein)”, the IC50 in the data set with biotin-humanin [1] worked out at 74 nM; with biotin-humanin [2] it was 58 nM; with biotin-humanin [3], 39 nM; in the data set with biotin-humanin [4], 93 nM. The molecule further came in with a percent decrease of the biotinylated Aβ signal on HN at 0.2 μM IGFBP-3 in the data set with Humanin (HN) peptide of 50%.
Turning to Humanin (HN) peptide, the fold increase of the HN signal at 400 nM added HN over no added HN in [5] and in data set [6] was 2.5 fold each time. The molecule also yielded a fold decrease of AChE bound to Aβ with added HN in data set [6] of 1.5 fold.
Take IGFBP-3: the “further effect of 400 nM IGFBP-3 on A11/LOC signals” value is given as “did not have any further effect” in data set [7] and “did not have any further effect” in data set [18] (400 nM vs 100 nM IGFBP-3, H1299 medium). In addition, the “detection in complex with any of the antibodies tested (6E10, 4G8, A11, LOC)” value in data set [8] is “No IGFBP-3 was detected”. Besides, the “cell viability after treatment with immunodepleted medium” value in the data set with H1299 cells [9] was “no effect”; in the data set with A549 cells [13] it was “increased the A549 cell viability”. The “effect of 2 μM IGFBP-3 on HN block of Aβ42 aggregation (ThT)” value with Aβ42 (Aβ42 2 μM, HN 2 μM, IGFBP-3 2 μM, 335 min, no AChE) was “reduced the ability of HN to block aggregation of Aβ, but only partially”. Besides, the “effect of 6 μM IGFBP-3 on HN block of Aβ42 aggregation (ThT)” value in the data set on Aβ42 (Aβ42 2 μM, HN 2 μM, IGFBP-3 6 μM, 335 min, no AChE) is given as “completely abolished the ability of HN to block the aggregation of Aβ”. Further, in the data set with Aβ42 (Aβ42, AChE, HN each 2 μM, IGFBP-3 6 μM), the “Aβ42 aggregation with 6 μM IGFBP-3 in presence of AChE and HN (ThT)” value is listed as “aggregation kinetics comparable to those of Aβ incubated with only AChE”. In the data set with Aβ40 (Aβ40 2 μM, HN 2 μM, IGFBP-3 2 μM, 335 min, no AChE), the “effect of 2 μM IGFBP-3 on HN block of Aβ40 aggregation (ThT)” value was “reduced the ability of HN to block aggregation of Aβ, but only partially”. Also, the “effect of 6 μM IGFBP-3 on HN block of Aβ40 aggregation (ThT)” value with Aβ40 (Aβ40 2 μM, HN 2 μM, IGFBP-3 6 μM, 335 min, no AChE) is “completely abolished the ability of HN to block the aggregation of Aβ”. Besides, the “Aβ40 aggregation with 6 μM IGFBP-3 in presence of AChE and HN (ThT)” value with Aβ40 (Aβ40, AChE, HN each 2 μM, IGFBP-3 6 μM) is given as “aggregation kinetics comparable to those of Aβ incubated with only AChE”. The HN-Aβ binding signal result in data set [10] (2 μM IGFBP-3, HN and Aβ 0.2 μM) is given as “completely abolished the signal”. Besides, the A549 cell viability result in data set [11] is “reducing A549 human lung cancer cell viability”. Also, the “effect of immunodepletion on total Aβ or oligomer” value in the data set on Aβ in H1299 medium and in the data set with Aβ in A549 medium was “No effects” each time. For the same molecule, the “IGFBP-3 detection in 6E10 complex after adding 400 nM IGFBP-3” value is “did not result in detection of IGFBP-3” in data set [12] (Figure 8A-C) and “did not result in detection of IGFBP-3” in data set [17] (A549 medium, Figure 8A-C). Besides, in [12] (Figure 8C), the “LOC signal with added IGFBP-3” value is reported as “no signal was observed”. In addition, in data set [12] (Figure 8C, added IGFBP-3), the “A11 signal fold increase relative to control with no IGFBP-3” value was ~ 2.5 fold. The “apoptosis after treatment with immunodepleted medium” value was “no effect” in the data set on H1299 cells [14] and “reduced apoptosis” in the data set with A549 cells [15]. For the same molecule, in data set [16], the “anti-A11 oligomer signal after immunodepletion” value is “No difference”. For the same molecule, the “A11 (amyloid oligomer) signal fold increase relative to control” value in [17] (setting [24]) was ~ 3.9 fold. Also, the “LOC (amyloid fibrils) signal fold increase relative to control” value in [17] (setting [24]) was ~ 1.7 fold. The “HN in 6E10 complex upon addition of 50 nM IGFBP-3” value in data set [17] (setting [25]) is reported as “diminished”. In data set [17] (setting [25]), the “HN in 6E10 complex upon addition of 100 nM IGFBP-3” value is reported as “completely depleted”. Further, in data set [17] (setting [26]), the “A11 signal fold increase relative to control without IGFBP-3” value is reported as ~ 3.9 fold. Besides, the “LOC signal fold increase relative to control with no IGFBP-3” value in [17] (setting [26]) is ~ 1.59 fold. The “anti-LOC signal, cell media in which increase was observed” value in data set [18] (100 nM IGFBP-3 added, H1299 medium (no increase)) is reported as “only in the A549 medium”.
Turning to “HN (5–15) (GFSCLLLLTSE; Humanin; UniProt Q8IVG9 5-15, looked up, fragment)”, the “inhibition of Aβ40-HN interactions” value in the data set on Aβ40-HN interactions is reported as “more effective inhibitor of Aβ40-HN interactions than Aβ (17–28)”.
Consider Aβ42 [reference compound], for which the “aggregation kinetics compared to Aβ40 (ThT)” value in the data set with Aβ42 (Aβ42 2 μM, 335 min) is given as “faster aggregation kinetics”.

B1: AChE (protein)
chain: EGREDAELLVTVRGGRLRGIRLKTPGGPVSAFLGIPFAEPPMGPRRFLPPEPKQPWSGVVDATTFQSVCYQYVDTLYPGFEGTEMWNPNRELSEDCLYLNVWTPYPRPTSPTPVLVWIYGGGFYSGASSLDVYDGRFLVQAERTVLVSMNYRVGAFGFLALPGSREAPGNVGLLDQRLALQWVQENVAAFGGDPTSVTLFGESAGAASVGMHLLSPPSRGLFHRAVLQSGAPNGPWATVGMGEARRRATQLAHLVGCPPGGTGGNDTELVACLRTRPAQVLVNHEWHVLPQESVFRFSFVPVVDGDFLSDTPEALINAGDFHGLQVLVGVVKDEGSYFLVYGAPGFSKDNESLISRAEFLAGVRVGVPQVSDLAAEAVVLHYTDWLHPEDPARLREALSDVVGDHNVVCPVAQLAGRLAAQGARVYAYVFEHRASTLSWPLWMGVPHGYEIEFIFGIPLDPSRNYTAEEKIFAQRLMRYWANFARTGDPNEPRDPKAPQWPPYTAGAQQYVSLDLRPLEVRRGLRAQACAFWNRFLPKLLSATDTLDEAERQWKAEFHRWSSYMVHWKNQFDHYSKQDRCSDL
B1: the entries for the “cell viability after treatment with immunodepleted medium” value in the data set on H1299 cells [9] and in the data set with A549 cells [13] were “no effect” and “increased the A549 cell viability”, respectively. Moreover, the “binding to Aβ fragments” value in the data set on Aβ (12–28) and Aβ (1–16) is “binds to Aβ (12–28) and the Aβ (1–16) peptide”. Also, the “aggregation of Aβ42 with AChE (ThT)” value with Aβ42 (Aβ42 2 μM, AChE 2 μM, 335 min) was “increased aggregation with changes in both the lag phase and the final ThT fluorescence value”. The “aggregation of Aβ40 with AChE (ThT)” value in the data set with Aβ40 (Aβ40 2 μM, AChE 2 μM, 335 min) is “increased aggregation with changes in both the lag phase and the final ThT fluorescence value”. Moreover, the “change in signal with increasing AChE in presence of IGFBP-3” value in data set [10] (0.2 or 2 μM IGFBP-3 present) is “no change in the signal”. Further, in the data set on Aβ in H1299 medium, the “effect of immunodepletion on total Aβ or oligomer” value was “No change”. The “AChE bound to Aβ (6E10 capture)” value in [19] is given as “detectable levels”; in [21] it was “Barely detectable levels”. In addition, in data set [20], the “effect of added AChE on IGFBP-3 competition with Aβ40 for HN” value is listed as “no difference”. The “apoptosis after treatment with immunodepleted medium” value in the data set with H1299 cells [14] was “no effect”; with A549 cells [15], “reduced apoptosis”. Moreover, the entries for the “Aβ detected with anti-6E10 after immunodepletion” value in data set [16] (Figure 9B,E) and in [23] were “decreased the amount of Aβ” and “no change”, respectively. Besides, the “anti-A11 oligomer signal after immunodepletion” value in [16] is reported as “No difference”. For the same molecule, the “effect of added AChE on IGFBP-3 competition with Aβ42 for HN” value in data set [22] is “no difference”.
